# Assay results as given in US12441727B2, “Tricyclic compounds as inhibitors of KRAS” (Incyte Corporation, priority 2021, dated 2025).
# Like-named read-outs stand apart in the source and are kept apart here.
# Key:
# KRAS G12C = KRAS G12C (Homo sapiens, UniProt P01116, G12C); assay: GDP-GTP exchange assay (KRAS_G12C exchange assay); assay type: biochemical; settings: bodipy-loaded KRAS G12C 2.5 nM, SOS1 150 nM, 2 hours pre-incubation with inhibitor; read-out: G12C_exchange
# Description: The inhibitor potency of the exemplified compounds was determined in a fluorescence based guanine nucleotide exchange assay, which measures the exchange of bodipy-GDP (fluorescently labeled GDP) for GppNHp (Non-hydrolyzable GTP analog) to generate the active state of KRAS in the presence of SOS1 (guanine nucleotide exchange factor). Inhibitors were serially diluted in DMSO and a volume of 0.1 μL was transferred to the wells of a black low volume 384-well plate. 5 μL/well volume of bodipy-loaded KRAS G12C diluted to 5 nM in assay buffer (25 mM Hepes pH 7.5, 50 mM NaCl, 10 mM MgCl2 and 0.01% Brij-35) was added to the plate and pre-incubated with inhibitor for 2 hours at ambient temperature. Appropriate controls (enzyme with no inhibitor or with a G12C inhibitor (AMG-510)) were included on the plate. The exchange was initiated by the addition of a 5 μL/well volume containing 1 mM GppNHp and 300 nM SOS1 in assay buffer. The 10 μL/well reaction concentration of the bodipy-loaded KRAS G12C, GppNHp, and SOS1 were 2.5 nM, 500 uM, and 150 nM, respectively. The reaction plates were incubated at ambient temperature for 2 hours, a time estimated for complete GDP-GTP exchange in the absence of inhibitor. For the KRAS G12D and G12V mutants, similar guanine nucleotide exchange assays were used with 2.5 nM as final concentration for the bodipy loaded KRAS proteins and with 4 hours and 3 hours incubation after adding GppNHp-SOS1 mixture for G12D and G12V respectively. A cyclic peptide described to selectively bind G12D mutant (Sakamoto et al., BBRC 484.3 (2017), 605-611) or internal compounds with confirmed binding were used as positive controls in the assay plates. Fluorescence intensities were measured on a PheraStar plate reader instrument (BMG Labtech) with excitation at 485 nm and emission at 520 nm.
# Either GraphPad prism or Genedata Screener SmartFit was used to analyze the data. The IC50 values were derived by fitting the data to a four parameter logistic equation producing a sigmoidal dose-response curve with a variable Hill coefficient.
# KRAS_G12C pERK = assay: Cellular pERK HTRF assay (KRAS_G12C pERK assay); assay type: cell-based, human; settings: KRAS G12C cells, 4 hours incubation with compound, read-out: G12C_pERK
# Description: MIA PaCa-2 (KRAS G12C; ATCC® CRL-1420), NCI-H358 (KRAS G12C; ATCC® CRL-5807), A427 (KRAS G12D; ATCC® HTB53), HPAFII (KRAS G12D; ATCC® CRL-1997), YAPC (KRAS G12V; DSMZ ACC382), SW480 (KRAS G12V; ATCC® CRL-228) and NCI-H838 (KRAS WT; ATCC® CRL-5844) cells are purchased from ATCC and maintained in RPMI 1640 media supplemented with 10% FBS (Gibco/Life Technologies). The cells are plated at 5000 cells per well (8 uL) into Greiner 384-well low volume, flat-bottom, and tissue culture treated white plates and incubated overnight at […], 5% CO2. The next morning, test compound stock solutions are diluted in media at 3× the final concentration and 4 uL are added to the cells, with a final concentration of 0.1% of DMSO. The cells are incubated with the test compounds for 4 hours (G12C and G12V) or 2 hrs (G12D) at 37° C., 5% CO2. Four uL of 4× lysis buffer with blocking reagent (Cisbio) are added to each well and plates are rotated gently (300 rpm) for 30 minutes at room temperature. Four uL per well of Cisbio anti Phospho-ERK 1/2 d2 is mixed with anti Phospho-ERK 1/2 Cryptate (1:1), and added to each well, incubated overnight in the dark at room temperature. Plates are read on the Pherastar plate reader at 665 nm and 620 nm wavelengths. Data are analyzed in Genedata Screener using SmartFit for IC50 values.
# [1] = tested on: KRAS_G12C pERK in MIA PaCa-2 cells; assay: Whole Blood pERK1/2 HTRF assay (KRAS_G12C WB pERK assay); assay type: cell-based, human; settings: compound in whole blood, 4 hours, read-out: G12C_WB_pERK
# Description: MIA PaCa-2 cells (KRAS G12C; ATCC® CRL-1420), HPAF-II (KRAS G12D; ATCC® CRL-1997) and YAPC (KRAS G12V; DSMZ ACC382) are maintained in RPMI 1640 with 10% FBS (Gibco/Life Technologies). For MIA PaCa-2 assay, cells are seeded into 96 well tissue culture plates (Corning #3596) at 25000 cells per well in 100 uL media and cultured for 2 days at 37° C., 5% CO2 before the assay. For HPAF-II and YAPC assay, cells are seeded in 96 well tissue culture plates at 50000 cells per well in 100 uL media and cultured for 1 day before the assay. Whole Blood are added to the 1 uL dots of compounds (prepared in DMSO) in 96 well plates and mixed gently by pipetting up and down so that the concentration of the compound in blood is 1× of desired concentration, in 0.5% DMSO. The media is aspirated from the cells and 50 uL per well of whole blood with test compound is added and incubated for 4 hours for MIA PaCa and YAPC assay; or 2 hours for HPAF-II assay, respectively at 37° C., 5% CO2. After dumping the blood, the plates are gently washed twice by adding PBS to the side of the wells and dumping the PBS from the plate onto a paper towel, tapping the plate to drain well. Fifty ul/well of 1× lysis buffer #1 (Cisbio) with blocking reagent (Cisbio) and Benzonase nuclease (Sigma Cat #E1014-5KU, 1:10000 final concentration) is then added and incubated at room temperature for 30 minutes with shaking (250 rpm). Following lysis, 16 uL of lysate is transferred into 384-well Greiner small volume white plate using an Assist Plus (Integra Biosciences, NH). Four uL of 1:1 mixture of anti Phospho-ERK 1/2 d2 and anti Phospho-ERK 1/2 Cryptate (Cisbio) is added to the wells using the Assist Plus and incubated at room temperature overnight in the dark. Plates are read on the Pherastar plate reader at 665 nm and 620 nm wavelengths. Data are analyzed in Genedata Screener using SmartFit for IC50 values.
# [2] = Human whole blood stability; assay type: in vitro ADME; settings: percent remaining at 4 hr, 1 μM, 37° C.
# Description: The whole blood stability of the exemplified compounds was determined by LC-MS/MS. The 96-Well Flexi-Tier™ Block (Analytical Sales & Services, Inc, Flanders, NJ) is used for the incubation plate containing 1.0 mL glass vials with 0.5 mL of blood per vial (pooled gender, human whole blood sourced from BIOIVT, Hicksville, NY or similar). Blood is pre-warmed in water bath to 37° C. for 30 minutes. 96-deep well analysis plate is prepared with the addition of 100 μL ultrapure water/well. 50 μL chilled ultrapure water/well is added to 96-deep well sample collection plate and covered with a sealing mat. 1 μL of 0.5 mM compound working solution (DMSO:water) is added to the blood in incubation plate to reach final concentrations of 1 μM, mixed by pipetting thoroughly and 50 μL is transferred 50 into the T=0 wells of the sample collection plate. Blood is allowed to sit in the water for 2 minutes and then 400 μL stop solution/well is added (acetonitrile containing an internal standard). The incubation plate is placed in the Incu-Shaker CO2 Mini incubator (Benchmark Scientific, Sayreville, NJ) at 37° C. with shaking at 150 rpm. At 1, 2 and 4-hr, the blood samples are mixed thoroughly by pipetting and 50 μL is transferred into the corresponding wells of the sample collection plate. Blood is allowed to sit in the water for 2 minutes and then 400 μL of stop solution/well is added. The collection plate is sealed and vortexed at 1700 rpm for 3 minutes (VX-2500 Multi-Tube Vortexer, VWR International, Radnor, PA), and samples are then centrifuged in the collection plate at 3500 rpm for 10 minutes (Allegra X-14R Centrifuge Beckman Coulter, Indianapolis, IN). 100 μL of supernatant/well is transferred from the sample collection plate into the corresponding wells of the analysis plate. The final plate is vortexed at 1700 rpm for 1 minute and analyze samples by LC-MS/MS. The peak area ratio of the 1, 2, and 4 hr samples relative to T=0 is used to determine the percent remaining. The natural log of the percent remaining versus time is used determine a slope to calculate the compounds half-life in blood (t1/2=0.693/slope).
# Sequence of KRAS G12C (P01116 1-188 isoform P01116-2 G12C): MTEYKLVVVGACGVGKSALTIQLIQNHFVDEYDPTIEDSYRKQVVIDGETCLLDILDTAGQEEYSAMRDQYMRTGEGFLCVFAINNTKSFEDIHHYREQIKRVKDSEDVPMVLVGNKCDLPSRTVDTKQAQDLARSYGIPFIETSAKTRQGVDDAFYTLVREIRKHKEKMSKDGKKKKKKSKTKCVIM
IC50 (KRAS G12C) [nM],"IC50 (KRAS_G12C pERK; Homo sapiens, 4 h) [nM]",IC50 ([1]; Homo sapiens) [nM],Human whole blood stability at 4 hr [2],IC50 (KRAS_G12C pERK) [nM],IC50 [1] [nM],Structure (SMILES)
≤ 50,≤ 50,100 to 1000,†† (WBS >70% but ≤90%),–,–,"COc1c(Cl)cccc1-c1c(C(F)(F)F)cc2c(nc(N3CC(C)(N(C)C)C3)c3nnn([C@H]4CCN(C(=O)/C=C/CF)[C@H](CC#N)C4)c32)c1F (single isomer, unassigned) [Example 3a]"
≤ 50,≤ 50,≤ 50,††† (WBS >90%),–,–,"C[C@H](Oc1nc2c(F)c(-c3ccc(F)c4cccnc34)c(C(F)(F)F)cc2c2c1nnn2[C@H]1CCN(C(=O)/C=C/CF)[C@H](CC#N)C1)[C@@H]1CCCN1C (single isomer, unassigned) [Example 4a]"
≤ 50,≤ 50,50 to 100,†† (WBS >70% but ≤90%),–,–,"C=CC(=O)N1CCC(n2nnc3c(O[C@@H](C)[C@@H]4CCCN4C)nc4c(F)c(-c5ccc(F)c6cccnc56)c(C(F)(F)F)cc4c32)CC1 (single isomer, unassigned) [Example 5a]"
≤ 50,–,≤ 50,†† (WBS >70% but ≤90%),≤ 50,–,"C=CC(=O)N1CCC(n2nnc3c(O[C@@H](C)[C@@H]4CCCN4C)nc4c(F)c(-c5cccc6cccc(C#N)c56)c(C)cc4c32)CC1 (single isomer, unassigned) [Example 11b]"
≤ 50,≤ 50,≤ 50,††† (WBS >90%),–,–,"C=CC(=O)N1CC[C@H](n2nnc3c(O[C@@H](C)[C@@H]4CCCN4C)nc4c(F)c(-c5cccc6cccc(C#N)c56)c(C)cc4c32)C[C@H]1C (single isomer, unassigned) [Example 14b]"
≤ 50,≤ 50,50 to 100,††† (WBS >90%),–,–,"C=C(F)C(=O)N1CC[C@H](n2nnc3c(N4CC(N(C)CC)C4)nc4c(F)c(-c5c(C)c(C)cc6[nH]ncc56)c(C)cc4c32)C[C@H]1CC#N (single isomer, unassigned) [Example 15a]"
≤ 50,–,50 to 100,††† (WBS >90%),≤ 50,–,"Cc1cc2c(nc(O[C@@H](C)[C@@H]3CCCN3C)c3nnn(C4CCN(C(=O)/C=C/CF)CC4)c32)c(F)c1-c1cccc2cccc(C#N)c12 (single isomer, unassigned) [Example 16b]"
≤ 50,≤ 50,100 to 1000,††† (WBS >90%),–,–,"COC/C=C/C(=O)N1CC[C@H](n2nnc3c(N4CC(C)(N(C)C)C4)nc4c(Cl)c(-c5ccc(F)c6cccnc56)c(Cl)cc4c32)C[C@H]1CC#N (single isomer, unassigned) [Example 18a]"
≤ 50,≤ 50,≤ 50,†† (WBS >70% but ≤90%),–,–,"CN(C)C1(C)CN(c2nc3c(Cl)c(-c4ccc(F)c5cccnc45)c(Cl)cc3c3c2nnn3[C@H]2CCN(C(=O)/C=C/CF)[C@H](CC#N)C2)C1 (single isomer, unassigned) [Example 19a]"
≤ 50,≤ 50,100 to 1000,††† (WBS >90%),–,–,"COC/C=C/C(=O)N1CC[C@H](n2nnc3c(N4CC(C)(N(C)C)C4)nc4c(F)c(-c5ccc(F)c6cccnc56)c(C(F)(F)F)cc4c32)C[C@H]1CC#N (single isomer, unassigned) [Example 20]"
≤ 50,–,–,†† (WBS >70% but ≤90%),≤ 50,50 to 100,"COC/C=C/C(=O)N1CC[C@H](n2nnc3c(O[C@@H](C)[C@@H]4CCCN4C)nc4c(F)c(-c5cnc(C)c6ccccc56)c(C)cc4c32)C[C@H]1CC#N (single isomer, unassigned) [Example 26b]"
≤ 50,≤ 50,50 to 100,†† (WBS >70% but ≤90%),–,–,"C=CC(=O)N1CC[C@H](n2nnc3c(O[C@@H](C)[C@@H]4CCCN4C)nc4c(F)c(-c5cccc6c5c(CC#N)nn6C)c(C)cc4c32)C[C@H]1C (single isomer, unassigned) [Example 28b]"
≤ 50,≤ 50,100 to 1000,††† (WBS >90%),–,–,"C=C(F)C(=O)N1CC[C@H](n2nnc3c(N4CC(C)(N(C)CC)C4)nc4c(F)c(-c5c(C)c(F)cc6[nH]ncc56)c(C)cc4c32)C[C@H]1CC#N (single isomer, unassigned) [Example 29]"
